Here are results for 42 molecules from ChEMBL document CHEMBL4038275, “t-Butyl pyridine and phenyl C-region analogues of 2-(3-fluoro-4-methylsulfonylaminophenyl)propanamides as potent TRPV1 antagonists” (Bioorg Med Chem, 2017).

pKi: −log10 of the molar value. Calls of active or inactive are those of the source. The calls are words filed in the database; no cut-off is given here.

The target of the first assay is Transient receptor potential cation channel subfamily V member 1 (Homo sapiens, UniProt Q8NER1). The experiment in a line: Antagonist activity at human TRPV1 expressed in CHOK1 cells assessed as inhibition of capsaicin induced calcium influx pretreated for 6 mins followed by capsaicin addition by Fluo-4/Pluronic F127 probe based FLIPR method. In kind it is cell-based.
Transient receptor potential cation channel subfamily V member 1, sequence (Q8NER1 whole entry): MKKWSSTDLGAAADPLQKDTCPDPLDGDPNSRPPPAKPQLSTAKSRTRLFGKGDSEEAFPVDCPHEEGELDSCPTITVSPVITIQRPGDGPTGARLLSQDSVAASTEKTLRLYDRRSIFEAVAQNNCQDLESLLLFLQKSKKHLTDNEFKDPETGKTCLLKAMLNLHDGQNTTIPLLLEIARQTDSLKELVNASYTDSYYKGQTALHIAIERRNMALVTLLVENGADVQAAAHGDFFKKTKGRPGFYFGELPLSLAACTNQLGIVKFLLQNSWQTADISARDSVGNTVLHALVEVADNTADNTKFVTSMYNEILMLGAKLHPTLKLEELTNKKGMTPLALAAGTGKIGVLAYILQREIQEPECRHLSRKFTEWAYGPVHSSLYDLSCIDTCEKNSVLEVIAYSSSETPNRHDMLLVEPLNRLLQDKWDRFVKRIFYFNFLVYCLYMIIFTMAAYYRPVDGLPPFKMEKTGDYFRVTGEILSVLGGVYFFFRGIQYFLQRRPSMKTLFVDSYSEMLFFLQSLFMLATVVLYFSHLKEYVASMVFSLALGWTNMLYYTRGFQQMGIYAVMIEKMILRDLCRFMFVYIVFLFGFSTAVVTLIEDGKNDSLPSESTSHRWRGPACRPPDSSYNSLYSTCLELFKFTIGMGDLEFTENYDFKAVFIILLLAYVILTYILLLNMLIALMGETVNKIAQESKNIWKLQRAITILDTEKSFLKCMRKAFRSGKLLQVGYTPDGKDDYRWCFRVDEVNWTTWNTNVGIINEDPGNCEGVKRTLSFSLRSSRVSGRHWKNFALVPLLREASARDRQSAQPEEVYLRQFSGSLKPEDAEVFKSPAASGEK
As to `CC(C(=O)NCc1ccc(C(C)(C)C)cc1OCc1ccccc1)c1ccc(NS(C)(=O)=O)c(F)c1` (stereo not drawn), the negative logarithm of the Ki (pKi) is 8.54.
`CC(C(=O)NCc1ccc(C(C)(C)C)cc1SC1CCCCC1)c1ccc(NS(C)(=O)=O)c(F)c1` (stereo not drawn): the pKi is 8.13.
On the same count and under the same terms, as for `CCCCSc1nc(C(C)(C)C)ccc1CNC(=O)C(C)c1ccc(NS(C)(=O)=O)c(F)c1` (stereo not drawn), the figure is 8.49; as for `CC(C(=O)NCc1ccc(C(C)(C)C)nc1SC1CCCCC1)c1ccc(NS(C)(=O)=O)c(F)c1` (stereo not drawn), 8.07; as for `CC(C(=O)NCc1ccc(C(C)(C)C)nc1SCc1ccccc1)c1ccc(NS(C)(=O)=O)c(F)c1` (stereo not drawn), 8.40.
The same measure, in the same setting: as for `CCC1CCN(c2nc(C(C)(C)C)ccc2CNC(=O)C(C)c2ccc(NS(C)(=O)=O)c(F)c2)CC1` (stereo not drawn), the figure is 10.00; as for `CC(C(=O)NCc1ccc(C(C)(C)C)nc1SCC(F)(F)F)c1ccc(NS(C)(=O)=O)c(F)c1` (stereo not drawn), 8.39; as for `CC(C(=O)NCc1ccc(C(C)(C)C)cc1N1CCCCCC1)c1ccc(NS(C)(=O)=O)c(F)c1` (stereo not drawn), 8.21.
The same measure, in the same setting: as for `CC(C(=O)NCc1ccc(C(C)(C)C)nc1C1CCCCC1)c1ccc(NS(C)(=O)=O)c(F)c1` (stereo not drawn), the figure is 8.51; as for `CC(C)CCOc1cc(C(C)(C)C)ccc1CNC(=O)C(C)c1ccc(NS(C)(=O)=O)c(F)c1` (stereo not drawn), 9.22.
Regarding `CC(C(=O)NCc1ccc(C(C)(C)C)nc1SCc1ccccc1Cl)c1ccc(NS(C)(=O)=O)c(F)c1` (stereo not drawn), the pKi is 8.42.
The same measure, in the same setting: for `COc1cccc(COc2nc(C(C)(C)C)ccc2CNC(=O)C(C)c2ccc(NS(C)(=O)=O)c(F)c2)c1` (stereo not drawn) the value was 8.22; for `CC(C(=O)NCc1ccc(C(C)(C)C)cc1N1CCCC1)c1ccc(NS(C)(=O)=O)c(F)c1` (stereo not drawn), 8.09.
Consider `CCCCCCOc1cc(C(C)(C)C)ccc1CNC(=O)C(C)c1ccc(NS(C)(=O)=O)c(F)c1` (stereo not drawn), for which the negative-log Ki (pKi) is 9.30.
Regarding `CC(C(=O)NCc1ccc(C(C)(C)C)nc1SCc1ccc(Cl)cc1)c1ccc(NS(C)(=O)=O)c(F)c1` (stereo not drawn), the pKi is 8.47.
Turning to `COc1ccc(CSc2nc(C(C)(C)C)ccc2CNC(=O)C(C)c2ccc(NS(C)(=O)=O)c(F)c2)cc1` (stereo not drawn), the negative-log Ki (pKi) was 8.46.
On the same count and under the same terms, for `CC(C(=O)NCc1ccc(C(C)(C)C)nc1OCc1ccc(F)cc1)c1ccc(NS(C)(=O)=O)c(F)c1` (stereo not drawn) the value was 9.10; for `CCCCCCSc1nc(C(C)(C)C)ccc1CNC(=O)C(C)c1ccc(NS(C)(=O)=O)c(F)c1` (stereo not drawn), 8.82.
Same read-out and setting: as for `C[C@@H](C(=O)NCc1ccc(C(C)(C)C)nc1SC1CCCCC1)c1ccc(NS(C)(=O)=O)c(F)c1`, the figure is 7.44; as for `CC(C(=O)NCc1ccc(C(C)(C)C)cc1OCc1ccc(F)cc1)c1ccc(NS(C)(=O)=O)c(F)c1` (stereo not drawn), 8.42.
The same measure, in the same setting: as for `CC(C(=O)NCc1ccc(C(C)(C)C)cc1C1CCCCC1)c1ccc(NS(C)(=O)=O)c(F)c1` (stereo not drawn), the figure is 8.01; as for `CCCCSc1cc(C(C)(C)C)ccc1CNC(=O)C(C)c1ccc(NS(C)(=O)=O)c(F)c1` (stereo not drawn), 8.17.
As for `CC(C(=O)NCc1ccc(C(C)(C)C)nc1-c1ccc(F)cc1)c1ccc(NS(C)(=O)=O)c(F)c1` (stereo not drawn), the pKi is 9.52.
The same measure, in the same setting: for `CC1CCN(c2cc(C(C)(C)C)ccc2CNC(=O)C(C)c2ccc(NS(C)(=O)=O)c(F)c2)CC1` (stereo not drawn) the value was 9.15.
The same measure, in the same setting: for `CC(C(=O)NCc1ccc(C(C)(C)C)nc1N1CCCCC1)c1ccc(NS(C)(=O)=O)c(F)c1` (stereo not drawn) the value was 8.96; for `CCCCCc1cc(C(C)(C)C)ccc1CNC(=O)C(C)c1ccc(NS(C)(=O)=O)c(F)c1` (stereo not drawn), 8.55.
Regarding `C[C@H](C(=O)NCc1ccc(C(C)(C)C)nc1SC1CCCCC1)c1ccc(NS(C)(=O)=O)c(F)c1`, the pKi was 8.47.
Same read-out and setting: for `CCCOc1cc(C(C)(C)C)ccc1CNC(=O)C(C)c1ccc(NS(C)(=O)=O)c(F)c1` (stereo not drawn) the value was 8.36; for `CC(C(=O)NCc1ccc(C(C)(C)C)nc1SCCCN(C)C)c1ccc(NS(C)(=O)=O)c(F)c1` (stereo not drawn), 7.29; for `CC(C(=O)NCc1ccc(C(C)(C)C)nc1N1CCC(Cc2ccccc2)CC1)c1ccc(NS(C)(=O)=O)c(F)c1` (stereo not drawn), 9.52.
Take `C[C@H](C(=O)NCc1ccc(C(C)(C)C)cc1SC1CCCCC1)c1ccc(NS(C)(=O)=O)c(F)c1`: the pKi was 8.22.
Still for that read-out and setting: as for `CC(C(=O)NCc1ccc(C(C)(C)C)nc1SC1CCCC1)c1ccc(NS(C)(=O)=O)c(F)c1` (stereo not drawn), the figure is 8.60.
Turning to `CC(C(=O)NCc1ccc(C(C)(C)C)nc1SCCCN1CCCC1)c1ccc(NS(C)(=O)=O)c(F)c1` (stereo not drawn), the pKi is 7.77.
The same measure, in the same setting: for `CCCCN(C)c1nc(C(C)(C)C)ccc1CNC(=O)C(C)c1ccc(NS(C)(=O)=O)c(F)c1` (stereo not drawn) the value was 8.92; for `CC(C(=O)NCc1ccc(C(C)(C)C)cc1N1CCCCC1)c1ccc(NS(C)(=O)=O)c(F)c1` (stereo not drawn), 8.72; for `C[C@@H](C(=O)NCc1ccc(C(C)(C)C)cc1SC1CCCCC1)c1ccc(NS(C)(=O)=O)c(F)c1`, 7.05.
Same read-out and setting: for `CCCCCSc1nc(C(C)(C)C)ccc1CNC(=O)C(C)c1ccc(NS(C)(=O)=O)c(F)c1` (stereo not drawn) the value was 8.51; for `CCCCN(C)c1cc(C(C)(C)C)ccc1CNC(=O)C(C)c1ccc(NS(C)(=O)=O)c(F)c1` (stereo not drawn), 9.00; for `CC(C(=O)NCc1ccc(C(C)(C)C)nc1SCCCN1CCOCC1)c1ccc(NS(C)(=O)=O)c(F)c1` (stereo not drawn), 6.95.
Same read-out and setting: for `CC(C(=O)NCc1ccc(C(C)(C)C)cc1N1CCN(c2ccccc2)CC1)c1ccc(NS(C)(=O)=O)c(F)c1` (stereo not drawn) the value was 9.10.
Regarding `CCCCCc1nc(C(C)(C)C)ccc1CNC(=O)C(C)c1ccc(NS(C)(=O)=O)c(F)c1` (stereo not drawn), the pKi is 8.72.
On the same count and under the same terms, as for `CC(C)CCSc1nc(C(C)(C)C)ccc1CNC(=O)C(C)c1ccc(NS(C)(=O)=O)c(F)c1` (stereo not drawn), the figure is 8.23.

For the next assay, the system named is Mus musculus. The experiment in a line: Analgesic activity in po dosed Bennett mouse model of neuropathic pain assessed as reduction in chronic constriction injury-induced cold allodynia. Type of assay: functional, organism-based.
Consider `C[C@H](C(=O)NCc1ccc(C(C)(C)C)cc1SC1CCCCC1)c1ccc(NS(C)(=O)=O)c(F)c1`, for which the Activity entry is “Dose-dependent effect”.

The subject of the next assay is Mus musculus. The experiment in a line: Analgesic activity in Bennett mouse model of neuropathic pain assessed as reduction in chronic constriction injury-induced cold allodynia at 10 mg/kg, po relative to control. Type of assay: functional.
Consider `C[C@H](C(=O)NCc1ccc(C(C)(C)C)nc1SC1CCCCC1)c1ccc(NS(C)(=O)=O)c(F)c1`, for which the result was Active.
For `C[C@H](C(=O)NCc1ccc(C(C)(C)C)cc1SC1CCCCC1)c1ccc(NS(C)(=O)=O)c(F)c1`, the MPE is 83%.

Another assay has as its system Mus musculus. Put plainly: Analgesic activity in Bennett mouse model of neuropathic pain assessed as reduction in chronic constriction injury-induced cold allodynia at 3 mg/kg, po relative to control. In kind it is functional.
Consider `C[C@H](C(=O)NCc1ccc(C(C)(C)C)nc1SC1CCCCC1)c1ccc(NS(C)(=O)=O)c(F)c1`, for which the MPE was 50%.

The next assay has as its system Mus musculus. The experiment in a line: Analgesic activity in mouse assessed as reduction in capsaicin induced hypothermia at 3 mg/kg, po relative to control. In kind it is functional.
`C[C@H](C(=O)NCc1ccc(C(C)(C)C)nc1SC1CCCCC1)c1ccc(NS(C)(=O)=O)c(F)c1`: the MPE came to 46%.

Another assay concerns Mus musculus. Put plainly: Analgesic activity in mouse assessed as reduction in capsaicin induced hypothermia at 10 mg/kg, po relative to control. In kind it is functional.
As to `C[C@H](C(=O)NCc1ccc(C(C)(C)C)nc1SC1CCCCC1)c1ccc(NS(C)(=O)=O)c(F)c1`, the MPE worked out at 15%.

In general, pKi refers to −log10 of the Ki, conventionally taken in molar units.
